Assay results from patent US20240018158A1, “BRM TARGETING COMPOUNDS AND ASSOCIATED METHODS OF USE” (Prelude Therapeutics Incorporated, priority 2020, published 2024).

Columns and labels:
SMARCA2 = SMARCA2 (Homo sapiens (Human), UniProt P51531); experiment: SMARCA2 HiBiT degradation assay in HeLa cells; format: cell-based; details: 18 hours; for DC50: read-out: DC50 (SM2-HeLa) SMARCA2 degradation potency; for Dmax: read-out: Dmax % (SM2-HeLa) maximum SMARCA2 degradation within the concentrations tested
Chain of SMARCA2 (P51531 whole entry): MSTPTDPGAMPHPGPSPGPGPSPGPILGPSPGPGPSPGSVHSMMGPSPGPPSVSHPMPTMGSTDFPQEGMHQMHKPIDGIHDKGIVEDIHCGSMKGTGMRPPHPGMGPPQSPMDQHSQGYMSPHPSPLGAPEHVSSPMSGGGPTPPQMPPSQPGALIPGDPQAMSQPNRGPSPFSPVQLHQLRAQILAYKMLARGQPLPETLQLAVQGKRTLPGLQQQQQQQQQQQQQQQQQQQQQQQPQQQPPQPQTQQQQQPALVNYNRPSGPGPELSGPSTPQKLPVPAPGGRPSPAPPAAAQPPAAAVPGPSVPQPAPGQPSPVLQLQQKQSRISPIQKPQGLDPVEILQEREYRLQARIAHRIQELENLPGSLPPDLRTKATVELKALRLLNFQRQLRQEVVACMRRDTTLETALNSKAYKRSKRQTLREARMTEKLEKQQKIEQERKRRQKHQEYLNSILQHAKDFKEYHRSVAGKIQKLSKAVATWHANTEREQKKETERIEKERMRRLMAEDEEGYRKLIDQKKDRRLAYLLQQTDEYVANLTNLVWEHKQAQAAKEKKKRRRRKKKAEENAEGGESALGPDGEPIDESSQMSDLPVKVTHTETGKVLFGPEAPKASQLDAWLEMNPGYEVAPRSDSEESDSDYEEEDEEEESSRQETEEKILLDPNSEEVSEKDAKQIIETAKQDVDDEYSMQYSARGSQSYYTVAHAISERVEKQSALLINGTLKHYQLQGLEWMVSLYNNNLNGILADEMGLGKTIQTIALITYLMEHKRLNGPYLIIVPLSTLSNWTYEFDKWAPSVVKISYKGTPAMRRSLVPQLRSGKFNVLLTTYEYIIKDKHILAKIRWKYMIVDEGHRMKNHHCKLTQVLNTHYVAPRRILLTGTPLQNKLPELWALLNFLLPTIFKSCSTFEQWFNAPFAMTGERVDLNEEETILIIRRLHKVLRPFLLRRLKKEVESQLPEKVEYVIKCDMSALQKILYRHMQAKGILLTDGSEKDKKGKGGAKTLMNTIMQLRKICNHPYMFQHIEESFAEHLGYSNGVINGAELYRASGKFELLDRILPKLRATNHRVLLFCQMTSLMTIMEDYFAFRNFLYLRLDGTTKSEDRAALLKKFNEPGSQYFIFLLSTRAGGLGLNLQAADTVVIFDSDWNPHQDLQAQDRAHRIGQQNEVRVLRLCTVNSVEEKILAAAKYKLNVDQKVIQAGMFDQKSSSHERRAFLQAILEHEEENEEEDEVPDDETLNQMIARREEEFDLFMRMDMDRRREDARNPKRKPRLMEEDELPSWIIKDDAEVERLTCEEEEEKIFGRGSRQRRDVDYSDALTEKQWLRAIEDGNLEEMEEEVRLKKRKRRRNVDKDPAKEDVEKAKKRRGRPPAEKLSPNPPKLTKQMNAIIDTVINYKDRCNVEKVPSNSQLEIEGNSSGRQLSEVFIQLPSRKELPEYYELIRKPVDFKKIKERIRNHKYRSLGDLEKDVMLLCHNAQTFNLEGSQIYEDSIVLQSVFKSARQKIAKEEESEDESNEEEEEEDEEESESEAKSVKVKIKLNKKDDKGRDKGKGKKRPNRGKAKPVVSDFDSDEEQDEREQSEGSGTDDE
Experimental: (§1) HiBiT peptide knock-in of SMARCA2 in LgBiT expressing HEK293T cells was performed by CRISPR-mediated tagging system as described Promega. The homozygous HiBiT knock-in on c-terminus SMARCA2 was confirmed by sanger sequence. SMARCA2-HiBiT knock-in Hela monoclonal cell (CS302366) and SMARCA4-HiBiT knock-in Hela monoclonal cell (CS3023226) were purchased from Promega. The heterozygous HiBiT-knock-in was confirmed by sanger sequence in both SMARCA2-HiBiT and SMARCA4-HiBiT monoclonal cells.
(§2) Dispense 10 μL aliquot of prepared Hela-SMARCA2-HiBiT or Hela-SMARCA4-HiBiT cells (1:1 ratio of cells:Trypan Blue (#1450013, Bio-Rad)) onto cell counting slide (#145-0011, Bio-Rad) and obtain cell density and cell viability using cell counter (TC20, Bio-Rad). Remove appropriate volume of resuspended cells from culture flask to accommodate 2500 cells/well @ 20 μL/well. Transfer Hela-HiBiT cells to 50 ml conical (#430290, Corning). Spin down at 1000 rpm for 5 min using tabletop centrifuge (SPINCHRON 15, Beckman). Discard supernatant and resuspend cell pellet in modified EMEM (#30-2003, ATCC) cell culture media containing 10% FBS (F2422-500ML, Sigma), and 1×Penicillin/Streptomycin (200 g/1) (30-002-CI, Corning) to a cell density of 125,000 cells/ml. Dispense 20 μL of resuspended Hela-HiBit cells per well in 384-well TC treated plate (#12-565-343, Thermo Scientific) using standard cassette (#50950372, Thermo Scientific) on Multidrop Combi (#5840310, Thermo Scientific) inside laminar flow cabinet. Dispense test compounds onto plates using digital liquid dispenser (D300E, Tecan). Incubate plates in humidified tissue culture incubator @37° C. for 18 hours. Add 20 ul of prepared Nano-Glo® HiBiT Lytic detection buffer (N3050, Promega) to each well of 384-well plate using small tube cassette (#24073295, Thermo Scientific) on Multidrop Combi, incubate @ RT for 30-60 min. Read plates on microplate reader (Envision 2105, PerkinElmer) using 384 well Ultra-Sensitive luminescence mode. Raw data files and compound information reports are swept into centralized data lake and deconvoluted using automated scripts designed by TetraScience, Inc. Data analysis, curve-fitting and reporting done in Dotmatics Informatics Suite using Screening Ultra module.

SMARCA4 = SMARCA4 (Homo sapiens (Human), UniProt P51532); experiment: SMARCA4 HiBiT degradation assay in HeLa cells; format: cell-based; details: 18 hours; for DC50: read-out: DC50 (SM4-HeLa) SMARCA4 degradation potency; for Dmax: HeLa, read-out: Dmax % (SM4-HeLa) maximum SMARCA4 degradation within the concentrations tested
Chain of SMARCA4 (P51532 whole entry): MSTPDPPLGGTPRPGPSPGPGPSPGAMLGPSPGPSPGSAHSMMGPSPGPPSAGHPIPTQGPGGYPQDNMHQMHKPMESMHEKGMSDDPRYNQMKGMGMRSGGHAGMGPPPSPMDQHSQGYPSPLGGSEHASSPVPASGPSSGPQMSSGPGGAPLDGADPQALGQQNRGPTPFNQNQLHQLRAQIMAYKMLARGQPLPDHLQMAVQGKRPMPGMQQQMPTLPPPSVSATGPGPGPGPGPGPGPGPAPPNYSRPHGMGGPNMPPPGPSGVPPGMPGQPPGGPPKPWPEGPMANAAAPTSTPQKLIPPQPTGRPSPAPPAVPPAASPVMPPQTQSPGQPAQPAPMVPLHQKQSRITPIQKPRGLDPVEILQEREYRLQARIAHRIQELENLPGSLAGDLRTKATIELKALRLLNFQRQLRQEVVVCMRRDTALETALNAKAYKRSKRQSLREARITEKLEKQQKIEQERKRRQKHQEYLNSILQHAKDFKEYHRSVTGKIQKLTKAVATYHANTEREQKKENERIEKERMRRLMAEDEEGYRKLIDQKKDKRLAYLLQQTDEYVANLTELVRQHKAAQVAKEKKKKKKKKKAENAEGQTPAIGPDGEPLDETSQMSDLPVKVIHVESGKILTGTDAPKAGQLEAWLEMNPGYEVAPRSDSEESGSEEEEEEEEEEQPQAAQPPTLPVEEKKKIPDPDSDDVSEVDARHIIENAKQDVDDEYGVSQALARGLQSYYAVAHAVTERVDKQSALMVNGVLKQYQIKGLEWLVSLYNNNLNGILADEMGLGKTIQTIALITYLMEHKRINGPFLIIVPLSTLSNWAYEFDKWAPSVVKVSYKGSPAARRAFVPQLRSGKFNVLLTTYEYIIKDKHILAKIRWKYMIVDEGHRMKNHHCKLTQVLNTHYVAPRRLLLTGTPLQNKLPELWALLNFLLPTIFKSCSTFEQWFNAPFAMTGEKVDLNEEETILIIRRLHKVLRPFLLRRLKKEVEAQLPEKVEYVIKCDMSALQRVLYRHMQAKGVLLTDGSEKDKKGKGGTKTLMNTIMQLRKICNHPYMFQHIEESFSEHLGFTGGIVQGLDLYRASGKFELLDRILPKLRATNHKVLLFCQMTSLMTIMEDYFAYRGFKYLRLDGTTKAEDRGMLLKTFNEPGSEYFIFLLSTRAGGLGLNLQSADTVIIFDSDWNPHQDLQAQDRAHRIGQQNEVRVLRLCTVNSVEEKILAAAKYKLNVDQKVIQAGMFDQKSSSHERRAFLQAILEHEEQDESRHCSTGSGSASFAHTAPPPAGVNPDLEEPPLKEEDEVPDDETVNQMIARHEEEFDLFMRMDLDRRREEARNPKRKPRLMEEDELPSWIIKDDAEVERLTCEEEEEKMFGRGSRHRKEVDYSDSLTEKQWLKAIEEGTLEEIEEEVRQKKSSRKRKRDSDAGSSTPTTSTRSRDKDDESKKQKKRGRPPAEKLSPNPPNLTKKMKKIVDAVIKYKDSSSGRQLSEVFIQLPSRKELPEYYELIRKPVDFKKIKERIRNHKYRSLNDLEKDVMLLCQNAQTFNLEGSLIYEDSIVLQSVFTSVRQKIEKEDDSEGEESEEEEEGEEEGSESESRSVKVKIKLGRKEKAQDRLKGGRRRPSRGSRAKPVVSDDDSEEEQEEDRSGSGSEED
Experimental: as §1, §2

Dmax % (SM2-HeLa) maximum SMARCA2 degradation within the concentrations tested (SMARCA2)	DC50 (SMARCA2) [µM]	Dmax % (SM4-HeLa) maximum SMARCA4 degradation within the concentrations tested (SMARCA4)	DC50 (SMARCA4) [µM]	Dmax (SMARCA2) [%]	Dmax (SMARCA4) [%]	SMILES
–	< 0.1	–	< 0.1	–	–	Cc1ncsc1-c1ccc([C@H](C)NC(=O)[C@@H]2C[C@@H](O)CN2C(=O)[C@@H](c2cc(OCCN3CCC(N4CCC(N5CCN6c7cc(-c8ccccc8O)nnc7NC[C@H]6C5)C4)CC3)no2)C(C)C)cc1 (single isomer, unassigned) [Example 70]
–	< 0.1	–	< 0.1	> 75	> 75	Cc1ncsc1-c1ccc([C@H](C)NC(=O)[C@@H]2C[C@@H](O)CN2C(=O)[C@@H](c2cc(O[C@H](C)CN3CCC(N4CCN5c6cc(-c7ccccc7O)nnc6NC[C@H]5C4)C3)no2)C(C)C)cc1 (single isomer, unassigned) [Example 50]
–	< 0.1	–	0.1 to 1	> 75	50 to 75	Cc1ncsc1-c1ccc([C@H](C)NC(=O)[C@@H]2C[C@@H](O)CN2C(=O)[C@@H](c2cc(OCCN3CCC(N4CCC(N5CCN6c7cc(-c8ccccc8O)nnc7NC[C@H]6C5)CC4)C3)no2)C(C)C)cc1 (stereo partly drawn) [Example 25, (2S,4R)-4-hydroxy-1-((2R)-2-(3-(2-(3-(4-((S)-2-(2-hydroxyphenyl)-5,6,6a,7,9,10-hexahydro-8H-pyrazino[1′,2′:4,5]pyrazino[2,3-c]pyridazin-8-yl)piperidin-1-yl)pyrrolidin-1-yl)ethoxy)isoxazol-5-yl)-3-methylbutanoyl)-N-((S)-1-(4-(4-methylthiazol-5-yl)phenyl)ethyl)pyrrolidine-2-carboxamide]
–	< 0.1	–	< 0.1	> 75	> 75	Cc1ncsc1-c1ccc([C@H](C)NC(=O)[C@@H]2C[C@@H](O)CN2C(=O)[C@@H](c2cc(OCCN3CCC(CN4CCN5c6cc(-c7ccccc7O)nnc6NC[C@H]5C4)CC3)no2)C(C)C)cc1 [Example 38, (2S,4R)-4-hydroxy-1-((R)-2-(3-(2-(4-(((S)-2-(2-hydroxyphenyl)-5,6,6a,7,9,10-hexahydro-8H-pyrazino[1′,2′:4,5]pyrazino[2,3-c]pyridazin-8-yl)methyl)piperidin-1-yl)ethoxy)isoxazol-5-yl)-3-methylbutanoyl)-N-((S)-1-(4-(4-methylthiazol-5-yl)phenyl)ethyl)pyrrolidine-2-carboxamide]
–	< 0.1	–	< 0.1	> 75	> 75	Cc1ncsc1-c1ccc([C@H](C)NC(=O)[C@@H]2C[C@@H](O)CN2C(=O)[C@@H](c2cc(OCCN3CCC(N4CCN5c6cc(-c7ccccc7O)nnc6NC[C@H]5C4)C(O)C3)no2)C(C)C)cc1 (stereo partly drawn) [Example 94, (2S,4R)-4-hydroxy-1-((2R)-2-(3-(2-(3-hydroxy-4-((S)-2-(2-hydroxyphenyl)-5,6,6a,7,9,10-hexahydro-8H-pyrazino[1′,2′:4,5]pyrazino[2,3-c]pyridazin-8-yl)piperidin-1-yl)ethoxy)isoxazol-5-yl)-3-methylbutanoyl)-N-((S)-1-(4-(4-methylthiazol-5-yl)phenyl)ethyl)pyrrolidine-2-carboxamide]
–	< 0.1	–	< 0.1	–	–	Cc1ncsc1-c1ccc([C@H](C)NC(=O)[C@@H]2C[C@@H](O)CN2C(=O)[C@@H](c2cc(OCCN3CCCC(N4CCN5c6cc(-c7ccccc7O)nnc6NC[C@H]5C4)C3)no2)C(C)C)cc1 (single isomer, unassigned) [Example 42]

Continued, compound first:

SMILES	Dmax % (SM2-HeLa) maximum SMARCA2 degradation within the concentrations tested (SMARCA2)	DC50 (SMARCA2) [µM]	Dmax % (SM4-HeLa) maximum SMARCA4 degradation within the concentrations tested (SMARCA4)	DC50 (SMARCA4) [µM]	Dmax (SMARCA2) [%]	Dmax (SMARCA4) [%]
Cc1ncsc1-c1ccc([C@H](C)NC(=O)[C@@H]2C[C@@H](O)CN2C(=O)[C@@H](c2cc(O[C@@H](C)CN3CCC(N4CCN5c6cc(-c7ccccc7O)nnc6NC[C@H]5C4)C3)no2)C(C)C)cc1 (stereo partly drawn) [Example 49, (2S,4R)-4-hydroxy-1-((2R)-2-(3-(((2S)-1-(3-((S)-2-(2-hydroxyphenyl)-5,6,6a,7,9,10-hexahydro-8H-pyrazino[1′,2′:4,5]pyrazino[2,3-c]pyridazin-8-yl)pyrrolidin-1-yl)propan-2-yl)oxy)isoxazol-5-yl)-3-methylbutanoyl)-N-((S)-1-(4-(4-methylthiazol-5-yl)phenyl)ethyl)pyrrolidine-2-carboxamide]	A/A (A = Dmax >75%)	< 0.1	A/A (A = Dmax >75%)	< 0.1	–	–
Cc1ncsc1-c1ccc([C@H](C)NC(=O)[C@@H]2C[C@@H](O)CN2C(=O)[C@@H](c2cc(CCCN(C)CCN3CCN4c5cc(-c6ccccc6O)nnc5NC[C@H]4C3)no2)C(C)C)cc1 [Example 92, (2S,4R)-4-hydroxy-1-((R)-2-(3-(3-((2-((S)-2-(2-hydroxyphenyl)-5,6,6a,7,9,10-hexahydro-8H-pyrazino[1′,2′:4,5]pyrazino[2,3-c]pyridazin-8-yl)ethyl)(methyl)amino)propyl)isoxazol-5-yl)-3-methylbutanoyl)-N-((S)-1-(4-(4-methylthiazol-5-yl)phenyl)ethyl)pyrrolidine-2-carboxamide]	–	< 0.1	–	≥ 10	> 75	≤ 50
Cc1ncsc1-c1ccc([C@H](C)NC(=O)[C@@H]2C[C@@H](O)CN2C(=O)[C@@H](c2cc(OCC(=O)N3CCC(N4CCN5c6cc(-c7ccccc7O)nnc6NC[C@H]5C4)C(C)C3)no2)C(C)C)cc1 (single isomer, unassigned) [Example 30]	–	< 0.1	–	< 0.1	> 75	> 75
Cc1ncsc1-c1ccc([C@H](C)NC(=O)[C@@H]2C[C@@H](O)CN2C(=O)[C@@H](c2cc(OCCN3CCC(N4CCN5c6cc(-c7ccccc7O)nnc6NCC5(C)C4)C3)no2)C(C)C)cc1 (stereo partly drawn) [Example 71, (2S,4R)-4-hydroxy-1-((2R)-2-(3-(2-(3-(2-(2-hydroxyphenyl)-6a-methyl-5,6,6a,7,9,10-hexahydro-8H-pyrazino[1′,2′:4,5]pyrazino[2,3-c]pyridazin-8-yl)pyrrolidin-1-yl)ethoxy)isoxazol-5-yl)-3-methylbutanoyl)-N-((S)-1-(4-(4-methylthiazol-5-yl)phenyl)ethyl)pyrrolidine-2-carboxamide]	–	< 0.1	–	< 0.1	> 75	> 75
Cc1ncsc1-c1ccc([C@H](C)NC(=O)[C@@H]2C[C@@H](O)CN2C(=O)[C@@H](c2cc(OCCN3CCC(N4CCN5c6cc(-c7ccccc7O)nnc6NCC5(C)C4)C3)no2)C(C)C)cc1 (stereo partly drawn) [Example 72, (2S,4R)-4-hydroxy-1-((2R)-2-(3-(2-(3-(2-(2-hydroxyphenyl)-6a-methyl-5,6,6a,7,9,10-hexahydro-8H-pyrazino[1′,2′:4,5]pyrazino[2,3-c]pyridazin-8-yl)pyrrolidin-1-yl)ethoxy)isoxazol-5-yl)-3-methylbutanoyl)-N-((S)-1-(4-(4-methylthiazol-5-yl)phenyl)ethyl)pyrrolidine-2-carboxamide]	–	< 0.1	–	< 0.1	–	–
Cc1ncsc1-c1ccc([C@H](C)NC(=O)[C@@H]2C[C@@H](O)CN2C(=O)[C@@H](c2cc(OCCN3CCN4c5cc(-c6ccccc6O)nnc5NC(C)C4C3)no2)C(C)C)cc1 (stereo partly drawn) [Example 95, (2S,4R)-4-hydroxy-1-((2R)-2-(3-(2-(2-(2-hydroxyphenyl)-6-methyl-5,6,6a,7,9,10-hexahydro-8H-pyrazino[1′,2′:4,5]pyrazino[2,3-c]pyridazin-8-yl)ethoxy)isoxazol-5-yl)-3-methylbutanoyl)-N-((S)-1-(4-(4-methylthiazol-5-yl)phenyl)ethyl)pyrrolidine-2-carboxamide]	–	< 0.1	–	< 0.1	> 75	> 75
Cc1ncsc1-c1ccc([C@H](C)NC(=O)[C@@H]2C[C@@H](O)CN2C(=O)[C@@H](c2cc(OCCN3CCC(C(=O)N4CCN5c6cc(-c7ccccc7O)nnc6NC[C@H]5C4)CC3)no2)C(C)C)cc1 [Example 98, (2S,4R)-4-hydroxy-1-((R)-2-(3-(2-(4-((S)-2-(2-hydroxyphenyl)-6,6a,7,8,9,10-hexahydro-5H-pyrazino[1′,2′:4,5]pyrazino[2,3-c]pyridazine-8-carbonyl)piperidin-1-yl)ethoxy)isoxazol-5-yl)-3-methylbutanoyl)-N-((S)-1-(4-(4-methylthiazol-5-yl)phenyl)ethyl)pyrrolidine-2-carboxamide]	–	< 0.1	–	< 0.1	> 75	> 75
